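Following 48 hours of exposure in 96-well plates, responses at five concentrations were used to interpolate endpoints linearly. TGI: concentration producing complete growth inhibition.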

For twelve molecules, TGI results are on record in PubChem BioAssay (NCI).

Test systems include MOLT-4 leukemia; HOP-92 NSCLC; A549 NSCLC; ACHN renal; MDA-MB-231 breast; U251 CNS; IGROV1 ovarian; MALME-3M melanoma; BT-549 breast.
Common to all, as to experiment: NCI-60 cell line screen, 48 h

As to `CCc1n[nH]c(=O)n1CCCCCCCCCCCCn1c(CC)n[nH]c1=O`, the TGI is 67.7 µM with MOLT-4 leukemia; more than 100 µM with HOP-92 NSCLC; more than 100 µM in the test on A549 NSCLC; more than 100 µM with ACHN renal; more than 100 µM in the test on MDA-MB-231 breast; 86.4 µM in the test on U251 CNS. In addition, the TGI with IGROV1 ovarian was more than 100 µM; in the test on MALME-3M melanoma it was 76 µM; in the test on BT-549 breast, 77.5 µM.
Take `Cc1ccc(Nc2nc3[nH]ccc3c(=O)[nH]2)cc1`: the TGI in the test on MOLT-4 leukemia, in the test on HOP-92 NSCLC, in the test with A549 NSCLC, in the test on ACHN renal, with MDA-MB-231 breast and with U251 CNS was more than 100 µM in each case. Also, the TGI in the test with IGROV1 ovarian, in the test on MALME-3M melanoma and in the test on BT-549 breast was more than 100 µM in each case.
Regarding `C=CCn1c(=O)c(C)cn(COCCO)c1=O`, the TGI in the test on MOLT-4 leukemia, in the test on HOP-92 NSCLC, in the test on A549 NSCLC, in the test on ACHN renal, in the test on MDA-MB-231 breast and in the test with U251 CNS was more than 100 µM each time. In addition, the TGI with IGROV1 ovarian, in the test with MALME-3M melanoma and with BT-549 breast was more than 100 µM in each case.
Regarding `c1ccc(/C(=N/Nc2nc3ccccc3s2)C2CCCCC2)nc1`, the TGI came to 27.8 µM in the test with MOLT-4 leukemia; 22.1 µM in the test with HOP-92 NSCLC; 76.1 µM in the test on A549 NSCLC; 19.3 µM in the test with ACHN renal; 27.3 µM in the test with MDA-MB-231 breast; 35.9 µM in the test with U251 CNS. Further, the TGI is 16.5 µM in the test with IGROV1 ovarian, 20.9 µM in the test on MALME-3M melanoma and 35.1 µM with BT-549 breast.
`OC1[C@@H]2[C@@H](O)CCCN2C[C@@H](O)[C@H]1O` (stereo partly drawn): the TGI in the test with MOLT-4 leukemia, in the test on HOP-92 NSCLC, in the test on A549 NSCLC, with ACHN renal, in the test on MDA-MB-231 breast and with U251 CNS was more than 100 µM in each case. For the same molecule, the TGI in the test on IGROV1 ovarian, with MALME-3M melanoma and with BT-549 breast was more than 100 µM in each case.
For `COC(=O)C1(NC(=O)C(CC(=O)OCc2ccccc2)NC(=O)OCc2ccccc2)CCCCCC1` (stereo not drawn), the TGI in the test on MOLT-4 leukemia, in the test with HOP-92 NSCLC, in the test on A549 NSCLC, in the test with ACHN renal, in the test with MDA-MB-231 breast and with U251 CNS was more than 100 µM in each case. The TGI with IGROV1 ovarian is more than 100 µM; in the test with MALME-3M melanoma it was more than 100 µM; with BT-549 breast it was 61.5 µM.
As to `CCOC(=O)c1c(C)n(Cc2ccc(Cl)cc2Cl)c2c1cc(O)c1[nH]c3c(c12)CCCC3`, the TGI in the test with MOLT-4 leukemia is 29.4 µM; with HOP-92 NSCLC it was 43 µM; in the test with A549 NSCLC, more than 100 µM; in the test with ACHN renal, 61.2 µM; with MDA-MB-231 breast, more than 100 µM; in the test with U251 CNS, more than 100 µM. Further, the TGI turned out to be 75.2 µM in the test on IGROV1 ovarian, 43.2 µM in the test on MALME-3M melanoma and 41.3 µM in the test on BT-549 breast.
Turning to `O=C(O)CC(Cc1ccccc1Cl)C(=O)O` (stereo not drawn), the TGI in the test on MOLT-4 leukemia, with HOP-92 NSCLC, in the test on A549 NSCLC, in the test on ACHN renal, in the test with MDA-MB-231 breast and in the test on U251 CNS was more than 100 µM throughout. The TGI in the test on IGROV1 ovarian, in the test on MALME-3M melanoma and in the test on BT-549 breast was more than 100 µM each time.
For `O=c1[nH]cc(NCCCl)c(=O)[nH]1`, the TGI with MOLT-4 leukemia, in the test on HOP-92 NSCLC, in the test on A549 NSCLC, in the test on ACHN renal, with MDA-MB-231 breast and in the test with U251 CNS was more than 100 µM in each case. The TGI with IGROV1 ovarian, in the test on MALME-3M melanoma and in the test on BT-549 breast was more than 100 µM each time.
For the molecule `O=C(Nc1ccc(N2C(=O)CSC2c2ccccc2O)cc1)c1ccc(N2C(=O)CSC2c2ccccc2O)cc1` (stereo not drawn), the TGI is more than 100 µM in the test on MOLT-4 leukemia; 86.4 µM in the test with HOP-92 NSCLC; more than 100 µM in the test on A549 NSCLC; more than 100 µM with ACHN renal; more than 100 µM in the test with MDA-MB-231 breast; more than 100 µM in the test with U251 CNS. The TGI with IGROV1 ovarian, with MALME-3M melanoma and in the test with BT-549 breast was more than 100 µM throughout.
Take `O=c1[nH]c(Nc2ccccc2)nc2c1ncn2CC(O)CSCCO` (stereo not drawn): the TGI in the test with MOLT-4 leukemia, with HOP-92 NSCLC, with A549 NSCLC, with ACHN renal, in the test on MDA-MB-231 breast and with U251 CNS was more than 100 µM in each case. Further, the TGI in the test on IGROV1 ovarian, with MALME-3M melanoma and in the test with BT-549 breast was more than 100 µM in each case.
With `CSc1ncc2c(n1)C(C#N)C1Sc3ccccc3N1C2=O` (stereo not drawn), the TGI in the test on MOLT-4 leukemia, in the test with HOP-92 NSCLC, in the test with A549 NSCLC, in the test with ACHN renal, in the test on MDA-MB-231 breast and with U251 CNS was more than 100 µM each time. Moreover, the TGI in the test with IGROV1 ovarian, with MALME-3M melanoma and in the test on BT-549 breast was more than 100 µM throughout.
